Experimental findings from US12595248B2, “PRMT5 inhibitors” (Merck Sharp & Dohme LLC, priority 2019, dated 2026) are described below.

In test [1] the target is T1, PRMT5-MEP50 enzyme complex (Homo sapiens, UniProt O14744).
T1 construct: Full-length (FL)-PRMT5-MEP50 enzyme complex (recombinant proteins from baculovirus-transfected Sf21 cells: FL-PRMT5; MW=73837 kDa and FL-MEP50; MW=38614); made in house; host or cells: baculovirus-transfected Sf21 cells
In words: PRMT5-MEP50 Enzyme Methylation Assay (Version A). The class given is biochemical. The procedure:
PRMT5-MEP50 Enzyme Methylation Assay (Version A)
PRMT5-MEP50 biochemical assay is a direct measurement of the methylation activity of the enzyme complex on a short peptide substrate derived from the N-terminus of H4 histone. Methylation experiment was performed with recombinant PRMT5-MEP50 protein complex. The assessment of inhibitory effect of small molecules was measured by the effectiveness of the compounds to inhibit this reaction (EC50).
In this assay, the potency (EC50) of each compound was determined from a twenty-point (1:2 serial dilution; top compound concentration of 100000 nM) titration curve using the following outlined procedure. To each well of a white ProxiPlus 384 well-plate, 100 nL of compound (1% DMSO in final assay volume of 10 μL) was dispensed, followed by the addition of 8 μL of 1× assay buffer (50 mM Bicine pH 8.0, 1 mM DTT, 0.004% Tween20, 0.01% BSA) containing 1.25 nM of Full-length (FL)-PRMT5-MEP50 enzyme complex (recombinant proteins from baculovirus-transfected Sf21 cells: FL-PRMT5; MW=[…] and FL-MEP50; MW=38614) and 1 μL of 150 μM S-(5′-Adenosyl)-L-Methionine Chloride (SAM). A plate was sealed and placed in a 37° C. humidified chamber for a 60 minutes pre-incubation with compound. Subsequently, each reaction was initiated by the addition of 1 μL 1× assay buffer containing 750 nM biotinylated H4R3 (MeI) peptide. The final reaction in each well of 10 μL consists of 1.0 nM PRMT5-MEP50, 75 nM biotinylated-peptide, and 15 μM SAM. Methylation reactions were allowed to proceed for 150 minutes in a sealed plate at 37° C. Reactions were immediately quenched by the addition of 1 μL of 5% formic acid. A plate was then frozen and shipped to SAMDI™ Tech Inc. to determine the percent conversion from H4R3 (MeI) to H4R3 (Me2). Dose-response curves were generated by plotting percent effect (% product conversion; Y-axis) vs. Log 10 compound concentrations (X-axis). EC50 values were determined by non-linear regression according to models for either sigmoidal (4 parameters) or biphasic (7 parameters) dose-response curves.

The target of another test is T2, PRMT5 (Homo sapiens, UniProt O14744).
T2 construct: seeded with 4000 MCF-7 cells in 30 μl media; endogenous in cells; host or cells: MCF-7 cells
T2 sequence (O14744 whole entry): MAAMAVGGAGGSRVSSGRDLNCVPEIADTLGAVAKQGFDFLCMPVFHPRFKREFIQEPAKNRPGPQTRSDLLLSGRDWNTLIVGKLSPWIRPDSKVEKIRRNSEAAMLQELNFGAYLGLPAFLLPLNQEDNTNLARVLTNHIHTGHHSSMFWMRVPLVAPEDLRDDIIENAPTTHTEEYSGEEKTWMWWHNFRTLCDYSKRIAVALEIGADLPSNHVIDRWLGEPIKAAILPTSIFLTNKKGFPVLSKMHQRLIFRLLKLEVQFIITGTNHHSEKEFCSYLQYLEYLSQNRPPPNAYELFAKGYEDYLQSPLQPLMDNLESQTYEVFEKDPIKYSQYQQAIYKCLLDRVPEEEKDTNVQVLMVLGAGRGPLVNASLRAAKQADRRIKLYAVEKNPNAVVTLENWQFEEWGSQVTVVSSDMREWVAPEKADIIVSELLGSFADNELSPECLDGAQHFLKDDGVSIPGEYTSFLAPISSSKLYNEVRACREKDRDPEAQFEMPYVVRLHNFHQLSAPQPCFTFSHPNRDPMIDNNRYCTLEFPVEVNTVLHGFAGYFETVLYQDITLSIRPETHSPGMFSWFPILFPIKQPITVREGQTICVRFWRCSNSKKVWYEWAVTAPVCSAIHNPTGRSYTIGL
T2 sequence (Q9BQA1 whole entry partner): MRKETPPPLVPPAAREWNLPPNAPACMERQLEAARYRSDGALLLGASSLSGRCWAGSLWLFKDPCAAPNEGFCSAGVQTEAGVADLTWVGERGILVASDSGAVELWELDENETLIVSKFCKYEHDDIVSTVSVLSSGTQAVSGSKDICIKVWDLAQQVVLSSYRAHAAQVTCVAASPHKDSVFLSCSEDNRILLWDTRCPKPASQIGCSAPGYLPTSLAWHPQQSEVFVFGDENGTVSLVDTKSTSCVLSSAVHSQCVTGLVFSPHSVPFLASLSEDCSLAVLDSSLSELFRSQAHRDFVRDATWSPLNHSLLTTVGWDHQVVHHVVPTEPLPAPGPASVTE
In words: PRMT5 Cell Target Engagement (TE) Assay. As to conditions: MCF-7 cells, treated for 3 days, symmetric dimethylation of arginine (SDMA) by high content imaging. Format: cell-based. In outline:
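MCF-7 cells treated 3 days at 37 °C with a ten-point 1:3 titration from 10000 nM. Fixed cells immunostained with anti-SDMA and Alexa488 secondary; nuclear fluorescence quantified by high-content imaging versus DMSO wells, with IC50 from a 4-parameter fit.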

The mark [2] stands for this setting: first of two EC50s: 7 parameters biphasic model, read-out: Enzyme Methylation Assay Version A (EC50_1).
Where [3] appears, read: second of two EC50s: 7 parameters biphasic model, read-out: Enzyme Methylation Assay Version A (EC50_2).
[4] abbreviates: only one EC50 shown: 4 parameters single site sigmoidal model, 60 min pre-incubation with SAM, read-out: Enzyme Methylation Assay Version A (EC50).

Where two headings read alike, the source gives them in different places.

T1 sequence (O14744 whole entry): as the sequence (O14744 whole entry) above
T1 sequence (Q9BQA1 whole entry partner): as the sequence (Q9BQA1 whole entry partner) above

`CCOc1nc(Br)cn2cc(C(=O)N3CC[C@H](N4CCc5ccccc5C4)[C@@H](O)C3)nc12` [Example 51, (6-bromo-8-ethoxyimidazo[1,2-a]pyrazin-2-yl)((3S,4S)-4-(3,4-dihydroisoquinolin-2(1H)-yl)-3-hydroxypiperidin-1-yl)methanone]: the EC50 in test [1] (setting [2]) came out at 0.4 nM; in test [1] (setting [3]), 120 nM; on PRMT5, 6.3 nM.

`Cc1cc(Cl)c2nc(C(=O)N3CC[C@H](N4CCc5ccccc5C4)[C@@H](O)C3)cn2c1` [Example 136, (8-chloro-6-methylimidazo[1,2-a]pyridin-2-yl)[(3S,4S)-4-(3,4-dihydroisoquinolin-2(1H)-yl)-3-hydroxypiperidin-1-yl]methanone]: the figures for the EC50 (in test [1] (setting [2]); in test [1] (setting [3]); on PRMT5) were 1.2 nM, 79 nM and 50 nM, respectively.

Turning to `CC(=O)N1CCC(Nc2cc(C(=O)N3CCC(N4CCc5ccccc5C4)C(O)C3(C)C)ccn2)CC1` (single isomer, unassigned) [Example 23, l-(4-((4-(4-(3,4-dihydroisoquinolin-2(1H)-yl)-3-hydroxy-2,2-dimethylpiperidine-1-carbonyl)pyridin-2-yl)amino)piperidin-1-yl)ethan-1-one], the figures for the EC50 (in test [1] (setting [2]); in test [1] (setting [3]); at PRMT5) were around 36 nM, 31600 nM and 4690 nM, respectively.

Regarding `O=C(c1cn2cc(C(F)(F)F)cc(Cl)c2n1)N1CC[C@H](N2CCc3ccccc3C2)[C@@H](O)C1` [Example 137, [8-chloro-6-(trifluoromethyl)imidazo[1,2-a]pyridin-2-yl][(3S,4S)-4-(3,4-dihydroisoquinolin-2(1H)-yl)-3-hydroxypiperidin-1-yl]methanone], the results for the EC50 (in test [1] (setting [4]); at PRMT5) were 1.1 nM and 9.2 nM, respectively.

In the case of `O=C(c1cc(NC2CCN3C(=O)CCC3C2)ncc1F)N1CC[C@H](N2CCc3ccccc3C2)[C@@H](O)C1` (single isomer, unassigned) [Example 117], the EC50 in test [1] (setting [4]) worked out at 1.8 nM; on PRMT5, 3.3 nM.

As to `CC1CC1c1cnc2nc(C(=O)N3CCC(N4CCc5ccccc5C4)[C@@H](O)C3)cn2c1` (single isomer, unassigned) [Example 129], the EC50 came out at 1.4 nM in test [1] (setting [4]) and 6.4 nM at PRMT5.

Take `CC(=O)N1CCC(Nc2cc(C(=O)N3CCC(N4CCc5ccccc5C4)C(O)C3(C)C)ccn2)CC1` (single isomer, unassigned) [Example 22, l-(4-((4-(4-(3,4-dihydroisoquinolin-2(1H)-yl)-3-hydroxy-2,2-dimethylpiperidine-1-carbonyl)pyridin-2-yl)amino)piperidin-1-yl)ethan-1-one]: the EC50 is 159 nM in test [1] (setting [2]), 58900 nM in test [1] (setting [3]) and above 10000 nM at PRMT5.

As to `CC(=O)N1CC2CC1CC2Nc1cc(C(=O)N2CC[C@H](N3CCc4ccccc4C3)[C@@H](O)C2)c(F)cn1` (single isomer, unassigned) [Example 119], the results for the EC50 (in test [1] (setting [4]); on PRMT5) were 3.5 nM and 15 nM, respectively.

As for `Cc1nc2ncc(C(=O)N3CC[C@H](N4CCc5ccccc5C4)[C@@H](O)C3)n2cc1Br` [Example 75, (6-bromo-7-methylimidazo[1,2-a]pyrimidin-3-yl)[(3S,4S)-4-(3,4-dihydroisoquinolin-2(1H)-yl)-3-hydroxypiperidin-1-yl]methanone], the values for the EC50 (in test [1] (setting [2]); in test [1] (setting [3]); at PRMT5) were 41 nM, 1550 nM and 647 nM, respectively.

Regarding `O=C(c1ccc2c(O)c(C3CC3)cnc2c1)N1CC[C@H](N2CCc3ccccc3C2)[C@@H](O)C1` [Example 63, (3-cyclopropyl-4-hydroxyquinolin-7-yl)((3S,4S)-4-(3,4-dihydroisoquinolin-2(1H)-yl)-3-hydroxypiperidin-1-yl)methanone], the EC50 in test [1] (setting [2]) amounted to 0.7 nM; in test [1] (setting [3]), 3310 nM; at PRMT5, 140 nM.

Consider `Cc1c(Br)cnc2ncc(C(=O)N3CC[C@H](N4CCc5ccccc5C4)[C@@H](O)C3)n12` [Example 76, (6-bromo-5-methylimidazo[1,2-a]pyrimidin-3-yl)[(3S,4S)-4-(3,4-dihydroisoquinolin-2(1H)-yl)-3-hydroxypiperidin-1-yl]methanone], for which the EC50 in test [1] (setting [2]) was found to be 3.1 nM; in test [1] (setting [3]), 1680 nM; at PRMT5, 2230 nM.

Consider `CC(C)c1nc2nc(C(=O)N3CC[C@H](N4CCc5ccccc5C4)[C@@H](O)C3)cn2cc1Br` [Example 79, [6-bromo-7-(propan-2-yl)imidazo[1,2-a]pyrimidin-2-yl][(3S,4S)-4-(3,4-dihydroisoquinolin-2(1H)-yl)-3-hydroxypiperidin-1-yl]methanone], for which the EC50 in test [1] (setting [4]) came to 0.7 nM; at PRMT5, 4.9 nM.

As to `CC(=O)N1CC[C@@H](CNc2cc(C(=O)N3CC[C@H](N4CCc5ccccc5C4)[C@@H](O)C3)c(F)cn2)C1` [Example 123, 1-((S)-3-(((4-((3S,4S)-4-(3,4-dihydroisoquinolin-2(1H)-yl)-3-hydroxypiperidine-1-carbonyl)-5-fluoropyridin-2-yl)amino)methyl)pyrrolidin-1-yl)ethan-1-one], the EC50 in test [1] (setting [4]) worked out at 4.1 nM; at PRMT5, 17 nM.

As to `CC1(C)Oc2ccc(C(=O)N3CC[C@H](N4CCc5ccccc5C4)[C@@H](O)C3)cc2NC1=O` [Example 101, 6-((3S,4S)-4-(3,4-dihydroisoquinolin-2(1H)-yl)-3-hydroxypiperidine-1-carbonyl)-2,2-dimethyl-2H-benzo[b][1,4]oxazin-3(4H)-one], the EC50 in test [1] (setting [2]) worked out at 0.9 nM; in test [1] (setting [3]) it was 2880 nM; on PRMT5, 16 nM.

Take `O=C(c1cn2cc(Br)cc(I)c2n1)N1CC[C@H](N2CCc3ccccc3C2)[C@@H](O)C1` [Example 139, (6-bromo-8-iodoimidazo[1,2-a]pyridin-2-yl)[(3S,4S)-4-(3,4-dihydroisoquinolin-2(1H)-yl)-3-hydroxypiperidin-1-yl]methanone]: the EC50 in test [1] (setting [4]) amounted to 1.3 nM; on PRMT5, 7.6 nM.

Take `O=C1Nc2cc(C(=O)N3CC[C@H](N4CCc5ccccc5C4)[C@@H](O)C3)ccc2OC1C1CC1` (single isomer, unassigned) [Example 80]: the EC50 in test [1] (setting [4]) was 0.7 nM; on PRMT5, 2.5 nM.

Regarding `COc1nc2nc(C(=O)N3CC[C@H](N4CCc5ccccc5C4)[C@@H](O)C3)cn2cc1Br` [Example 69, (6-bromo-7-methoxyimidazo[1,2-a]pyrimidin-2-yl)((3S,4S)-4-(3,4-dihydroisoquinolin-2(1H)-yl)-3-hydroxypiperidin-1-yl)methanone], the EC50 came to 1.2 nM in test [1] (setting [2]), 733 nM in test [1] (setting [3]) and 55 nM at PRMT5.

For `COC(=O)N1CCC(Nc2cc(C(=O)N3CC[C@H](N4CCc5ccccc5C4)[C@@H](O)C3)c(F)cn2)CC1` [Example 109, methyl 4-((4-((3S,4S)-4-(3,4-dihydroisoquinolin-2(1H)-yl)-3-hydroxypiperidine-1-carbonyl)-5-fluoropyridin-2-yl)amino)piperidine-1-carboxylate], the EC50 came out at 1.2 nM in test [1] (setting [4]) and 3.5 nM at PRMT5.

Consider `Cc1nc(C)c(-c2cnc3nc(C(=O)N4CC[C@H](N5CCc6ccccc6C5)[C@@H](O)C4)cn3c2)s1` [Example 56, [(3S,4S)-4-(3,4-dihydroisoquinolin-2(1H)-yl)-3-hydroxypiperidin-1-yl][6-(2,4-dimethyl-1,3-thiazol-5-yl)imidazo[1,2-a]pyrimidin-2-yl]methanone], for which the EC50 is 0.4 nM in test [1] (setting [4]) and 1.8 nM on PRMT5.

`O=C(c1cn2cc(Cl)cc(Cl)c2n1)N1CC[C@H](N2CCc3ccccc3C2)[C@@H](O)C1` [Example 140, (6,8-dichloroimidazo[1,2-a]pyridin-2-yl)[(3S,4S)-4-(3,4-dihydroisoquinolin-2(1H)-yl)-3-hydroxypiperidin-1-yl]methanone]: the EC50 in test [1] (setting [2]) is 0.8 nM; in test [1] (setting [3]), 65 nM; at PRMT5, 28 nM.

`CC(=O)N1CCC(Nc2cc(C(=O)N3CC[C@H](N4CCc5ccccc5C4)[C@@H](O)C3)c(F)cn2)C1` (single isomer, unassigned) [Example 114]: the EC50 in test [1] (setting [2]) turned out to be 3.3 nM; in test [1] (setting [3]), 3130 nM; at PRMT5, 28 nM.
